The results in this text go back to patent EP4692094A1 (Beijing Konruns Pharmaceutical Co., Ltd., priority 2023, dated 2024).

Molecules are shown by their SMILES. pIC50: −log10 of the molar value.

The nature of data set [1]: In-vivo pharmacokinetic study in rats. Set-up: species or system SD female rats. As to conditions: rat, plasma, po, intragastric administration, 5 mg/kg. How it is done: 1.1 Instrument: high-performance liquid chromatograph: SHIMADZU LC-30AD; mass spectrum: AB SCIEX mass spectrometer Triple Quad 5500; all measured data were calculated and processed using Microsoft Excel, and relevant pharmacokinetic parameters were calculated using WinNonlin software. The main obtained kinetic parameters are Tmax, T1/2, Cmax, AUC0-24 h, and AUCinf. […] Sample injection amount: 1 µL.
1.2 Animals: three SD female rats were used. The body weight range was 180-300 g. After purchase, the rats were bred in the experimental animal center for two days for later use. The rats were fasted 12 h before administration and 4 h after administration, and given ad libitum access to water during the assay. Blood samples were taken at predetermined time points after intragastric administration.
1.3 Vehicle: 0.5% HPMC (hydroxypropyl methylcellulose) + 0.4% Tween80 + 99.1% water. Preparation of intragastric administration solution: The compound was precisely weighed, the vehicle was added, and then the drug was completely dissolved by ultrasonication at room temperature for 5 min and prepared into a 0.5 mg/mL solution. After the intragastric administration, blood samples were taken at 0.083 h, 0.25 h, 0.5 h, 1.0 h, 2.0 h, 4.0 h, 7.0 h, and 24 h. The blood collection mode is as follows: 0.2 mL of the jugular vein blood was collected, EDTA-K2 was used as an anticoagulation agent, the collected blood sample was transferred into a microcentrifuge tube containing the anticoagulation agent, and the tube was centrifuged at 4 °C and 4000 g for 5 min to separate the plasma. All plasma samples collected were stored at -75±15 °C until analysis.
The compound was precisely weighed and prepared into a standard curve working solution and a quality control working solution at different concentrations. The blank plasma was added and prepared into a plasma standard curve and a quality control sample. LC/MS/MS analysis was performed after pretreatment using a protein precipitation method, and then the concentration of the compounds described above in the plasma was measured. All measured data were collected and processed by the relevant software, and pharmacokinetic parameters were calculated using Winnonlin software. Table 9. Pharmacokinetic parameters of some compounds in the examples in rats

A further data set addresses T1, KAT6A (Homo sapiens, UniProt Q92794).
T1 construct: purchased active motife (Active Motif) 81223
Put plainly: Enzymatic activity assay for KAT6A acetyltransferase (TR-FRET, acetylation of histone substrate H3). The class given is biochemical. Summed up: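 TR-FRET detection of biotinylated H3 acetylation by KAT6A with acetyl-CoA; compounds in 10-point 3-fold dilution (0.5% DMSO final) preincubated with enzyme 10 min at 25 °C, then 90 min reaction and 60 min Eu-antibody/ULight-SA detection at 25 °C. HTRF 665/615 ratio normalised to DMSO (0%) and top-dose control (100%); IC50 by nonlinear fit.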
(In general: In TR-FRET formats the signal depends on donor and acceptor labels being close together.)

The target in another data set is T2, hERG channel (Homo sapiens, UniProt Q12809).
T2 construct: expressed in transfected cells; host or cells: HEK-293
Description: hERG channel assay (manual patch clamp). As to conditions: HEK-293 cell line stably expressing the hERG channel, room temperature. The data set is classed as cell-based. How it is done: 1.1 Test methods: This experiment adopted a manual patch clamp technology to detect the blocking effect of the compounds on electric current in the HEK-293 cell line stably expressing the hERG channel, and the risk of the compounds on the inhibitory effect on the cardiac hERG potassium channel was evaluated by fitting a concentration-effect relationship.
1.2 Experimental procedures: The patch clamp operation was performed as follows: Firstly, a capillary glass tube was drawn into a recording electrode with a microelectrode drawing instrument. An electrode filled with the intracellular fluid was mounted on the microelectrode holder. Under an inverted microscope, a microelectrode manipulator was used to immerse the electrode in the extracellular fluid, and the electrode resistance (Rpip) was recorded. The electrode was then slowly brought into contact with the cell surface, and negative pressure was applied to form a GΩ seal. At this time, fast capacitance compensation was performed, and the application of negative pressure was continued to break the cell membrane, forming a whole-cell recording mode. Finally, slow capacitance compensation was performed, and experimental parameters such as series resistance (Rs) were recorded. No current leakage compensation was provided. Administration was started when the hERG current of the whole-cell record was stable. Each drug concentration was maintained for about 5 min (or until the current was stable) for action before the next concentration was measured. Multiple concentrations were measured for each test compound. The coverslip with cells applied thereon was placed in the recording chamber under the inverted microscope. Gravity perfusion was used to flow the blank control extracellular fluid and the working solutions of the test compounds sequentially from low to high concentrations over the cells in the recording chamber. A peristaltic pump was used for liquid exchange during recording. For each cell, the current detected in the compound-free extracellular fluid was used as its own control group. The test was independently repeated three times for each concentration. All electrophysiological experiments were performed at room temperature.
Data processing: First, the tail current (Peak tail currentcompound) after the action of each drug concentration was standardized with the tail current of the blank control (Peak tail currentcontrol), and then the inhibition rate corresponding to each drug concentration was calculated ( 1−(Peak tail currentcompound)/(Peak tail currentcontrol) [formula] ). Subsequently, the mean, standard deviation (SD), and standard error (SE) were calculated for the inhibition rate corresponding to each concentration. The data were represented by Mean ± SE. IC50 value calculation of the compounds and dose-effect curve fitting were performed using the GraphPad Prism software. The data obtained are shown in Table 12: Table 12. hERG channel assay results
For orientation: hERG is a cardiac potassium channel; its block is linked to QT prolongation.

T1 sequence (Q92794 whole entry): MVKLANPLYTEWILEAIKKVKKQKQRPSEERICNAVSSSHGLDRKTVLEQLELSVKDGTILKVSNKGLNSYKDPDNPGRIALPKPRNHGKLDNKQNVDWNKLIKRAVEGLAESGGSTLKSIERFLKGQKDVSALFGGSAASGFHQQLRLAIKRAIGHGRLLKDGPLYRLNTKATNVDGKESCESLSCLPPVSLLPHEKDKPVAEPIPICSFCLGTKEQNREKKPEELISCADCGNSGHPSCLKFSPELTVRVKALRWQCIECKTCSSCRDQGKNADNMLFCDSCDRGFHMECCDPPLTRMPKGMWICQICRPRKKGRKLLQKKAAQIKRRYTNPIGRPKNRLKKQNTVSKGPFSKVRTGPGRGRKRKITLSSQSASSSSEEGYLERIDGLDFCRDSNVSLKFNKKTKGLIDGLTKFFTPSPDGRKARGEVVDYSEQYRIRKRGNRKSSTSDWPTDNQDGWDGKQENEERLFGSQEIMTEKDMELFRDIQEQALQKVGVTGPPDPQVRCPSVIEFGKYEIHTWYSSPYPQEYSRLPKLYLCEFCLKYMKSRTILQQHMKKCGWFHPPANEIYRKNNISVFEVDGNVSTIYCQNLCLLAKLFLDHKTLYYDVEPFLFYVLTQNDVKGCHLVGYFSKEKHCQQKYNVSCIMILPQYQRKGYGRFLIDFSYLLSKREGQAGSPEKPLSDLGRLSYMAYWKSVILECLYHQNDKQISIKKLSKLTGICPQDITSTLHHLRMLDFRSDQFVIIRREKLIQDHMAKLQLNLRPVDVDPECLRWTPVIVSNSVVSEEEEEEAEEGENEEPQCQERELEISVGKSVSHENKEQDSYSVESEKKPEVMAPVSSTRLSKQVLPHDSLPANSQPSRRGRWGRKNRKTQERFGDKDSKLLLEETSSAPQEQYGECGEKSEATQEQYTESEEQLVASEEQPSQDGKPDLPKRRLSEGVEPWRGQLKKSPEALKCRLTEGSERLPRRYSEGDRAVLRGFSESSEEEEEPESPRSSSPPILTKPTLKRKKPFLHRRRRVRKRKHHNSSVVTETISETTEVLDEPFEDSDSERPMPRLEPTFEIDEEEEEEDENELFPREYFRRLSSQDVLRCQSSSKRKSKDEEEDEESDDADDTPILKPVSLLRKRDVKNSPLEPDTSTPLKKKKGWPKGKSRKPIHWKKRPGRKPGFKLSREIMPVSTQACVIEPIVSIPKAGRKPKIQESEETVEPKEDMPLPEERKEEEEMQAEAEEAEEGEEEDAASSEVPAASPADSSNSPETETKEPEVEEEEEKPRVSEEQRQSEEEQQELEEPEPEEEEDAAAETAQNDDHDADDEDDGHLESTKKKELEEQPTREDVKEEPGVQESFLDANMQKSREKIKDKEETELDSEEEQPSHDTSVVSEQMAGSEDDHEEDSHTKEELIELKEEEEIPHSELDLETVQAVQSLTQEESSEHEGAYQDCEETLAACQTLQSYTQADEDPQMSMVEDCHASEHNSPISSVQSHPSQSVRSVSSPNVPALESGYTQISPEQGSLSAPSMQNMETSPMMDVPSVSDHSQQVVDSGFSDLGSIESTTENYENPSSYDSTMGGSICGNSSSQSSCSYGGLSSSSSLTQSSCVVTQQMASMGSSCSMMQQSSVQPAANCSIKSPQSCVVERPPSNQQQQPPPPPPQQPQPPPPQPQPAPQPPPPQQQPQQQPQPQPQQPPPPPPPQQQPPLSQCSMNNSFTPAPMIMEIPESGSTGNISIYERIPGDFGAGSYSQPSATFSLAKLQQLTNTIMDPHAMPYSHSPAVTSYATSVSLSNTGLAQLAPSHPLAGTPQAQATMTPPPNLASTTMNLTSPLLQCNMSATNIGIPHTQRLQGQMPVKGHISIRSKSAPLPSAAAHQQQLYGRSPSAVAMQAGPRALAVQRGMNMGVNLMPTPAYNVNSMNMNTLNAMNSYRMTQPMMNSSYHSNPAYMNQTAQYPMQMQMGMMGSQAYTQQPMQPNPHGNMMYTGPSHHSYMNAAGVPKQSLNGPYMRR
T2 sequence (Q12809 whole entry): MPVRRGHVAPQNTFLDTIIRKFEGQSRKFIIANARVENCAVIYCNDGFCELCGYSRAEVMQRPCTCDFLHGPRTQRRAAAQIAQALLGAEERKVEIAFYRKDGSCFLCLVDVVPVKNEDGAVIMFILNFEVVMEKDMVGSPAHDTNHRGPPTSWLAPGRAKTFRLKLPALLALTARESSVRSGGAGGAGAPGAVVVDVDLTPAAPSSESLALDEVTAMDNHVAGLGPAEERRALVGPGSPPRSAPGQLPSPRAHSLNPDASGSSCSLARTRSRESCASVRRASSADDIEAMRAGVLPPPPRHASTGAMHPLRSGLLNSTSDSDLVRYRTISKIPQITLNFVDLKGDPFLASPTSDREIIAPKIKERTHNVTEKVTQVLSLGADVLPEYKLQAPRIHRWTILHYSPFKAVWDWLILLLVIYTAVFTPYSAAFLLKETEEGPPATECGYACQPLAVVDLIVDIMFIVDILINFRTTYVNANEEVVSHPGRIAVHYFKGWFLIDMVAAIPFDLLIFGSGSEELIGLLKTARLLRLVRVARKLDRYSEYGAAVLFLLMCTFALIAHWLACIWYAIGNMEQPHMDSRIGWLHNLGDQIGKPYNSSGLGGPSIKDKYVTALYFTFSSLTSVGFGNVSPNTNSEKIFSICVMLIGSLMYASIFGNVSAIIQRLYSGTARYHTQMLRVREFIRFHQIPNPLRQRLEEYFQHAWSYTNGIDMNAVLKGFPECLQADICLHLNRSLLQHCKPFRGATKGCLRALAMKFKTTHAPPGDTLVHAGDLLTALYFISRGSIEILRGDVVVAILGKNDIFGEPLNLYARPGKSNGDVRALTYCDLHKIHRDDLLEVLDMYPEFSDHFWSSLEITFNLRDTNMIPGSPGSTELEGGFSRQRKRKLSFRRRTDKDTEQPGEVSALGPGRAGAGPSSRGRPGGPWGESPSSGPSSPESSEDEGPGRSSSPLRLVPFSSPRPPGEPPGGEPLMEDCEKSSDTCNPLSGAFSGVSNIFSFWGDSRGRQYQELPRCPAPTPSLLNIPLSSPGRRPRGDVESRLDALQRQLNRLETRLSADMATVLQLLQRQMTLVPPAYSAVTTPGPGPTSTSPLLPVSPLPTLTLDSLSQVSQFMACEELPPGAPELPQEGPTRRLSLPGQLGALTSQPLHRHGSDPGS

Usually AUC(0-inf) stands for the area under the concentration-time curve extrapolated to infinity. In general, Cmax refers to the maximum level reached in the sampled fluid or tissue. By Tmax is commonly meant the time at which the peak concentration occurs. The term pIC50 denotes the IC50 on a negative log10 scale, so that one unit is a factor of ten. A high value points to a low IC50. Take `COc1cc2c(cc1S(=O)(=O)Nc1noc3cc(Cn4cccn4)nc(OC)c13)OCC2` [Example 59, N-(6-((1H-Pyrazol-1-yl)methyl)-4-methoxyisoxazolo[4,5-c]pyridin-3-yl)-5-methoxy-2,3-dihydrobenzofuran-6-sulfonamide]: in data set [1] (female, SD), the AUC(0-inf) was 167000 ng·h/mL, the maximum concentration (Cmax) stood at 16500 ng/mL and the time to peak (Tmax) was determined as 1.17 h. The AUC(0-t) in data set [1] (female, SD, read-out: AUC0-24h) turned out to be 166000 ng·h/mL. On KAT6A, this compound gave a pIC50 of 9.02. On hERG channel, this compound had a pIC50 of less than 4.52.
Regarding `COc1nc(Cn2cccn2)cc2onc(NS(=O)(=O)c3cccc4c3OCCO4)c12` [Example 4, N-(6-((1H-Pyrazol-1-yl)methyl)-4-methoxyisoxazolo[4,5-c]pyridin-3-yl)-2,3-dihydrobenzo[b][1,4]dioxine-5-sulfonamide], in data set [1] (female, SD), the area under the curve AUC(0-inf) is 12000 ng·h/mL, the concentration peaked (Cmax) at 5960 ng/mL and the time to peak (Tmax) was 0.25 h. Further, the AUC(0-t) in data set [1] (female, SD, read-out: AUC0-24h) was found to be 11800 ng·h/mL. The compound further had a pIC50 against KAT6A of 8.82. Besides, on hERG channel, the pIC50 is less than 4.52.
Regarding `COc1ccc2c(c1S(=O)(=O)Nc1noc3cc(Cn4cccn4)nc(OC)c13)OCC2` [Example 9, N-(6-((1H-Pyrazol-1-yl)methyl)-4-methoxyisoxazolo[4,5-c]pyridin-3-yl)-6-methoxy-2,3-dihydrobenzofuran-7-sulfonamide], in data set [1] (female, SD), the AUC(0-inf) amounted to 215000 ng·h/mL, the concentration peaked (Cmax) at 22500 ng/mL and the time to peak (Tmax) was 1.83 h. In addition, in data set [1] (female, SD, read-out: AUC0-24h), the AUC(0-t) was 215000 ng·h/mL. The compound also showed a negative-log IC50 (pIC50) on KAT6A of 9.04. On hERG channel, this compound gave a negative logarithm of the IC50 (pIC50) of less than 4.52.
For the compound `COc1cc2c(cc1S(=O)(=O)Nc1noc3cc(Cn4cccn4)nc(OC)c13)CCCO2` [Example 76, N-(6-((1H-Pyrazol-1-yl)methyl)-4-methoxyisoxazolo[4,5-c]pyridin-3-yl)-7-methoxy-3,4-dihydro-1H-benzopyran-6-sulfonamide], in data set [1], the area under the curve AUC(0-inf) was 162000 ng·h/mL, the concentration peaked (Cmax) at 14400 ng/mL and the time to peak (Tmax) turned out to be 2.33 h. In data set [1] (read-out: AUC0-24h), the AUC(0-t) at 24 h worked out at 158000 ng·h/mL. On KAT6A, this compound gave a pIC50 of 8.98.
With `COc1ccc2ccoc2c1S(=O)(=O)Nc1noc2cc(Cn3cccn3)nc(OC)c12` [Example 10, N-(6-((1H-Pyrazol-1-yl)methyl)-4-methoxyisoxazolo[4,5-c]pyridin-3-yl)-6-methoxybenzofuran-7-sulfonamide], in data set [1] (female, SD), the AUC(0-inf) stood at 74300 ng·h/mL, the maximum concentration (Cmax) came out at 10500 ng/mL and the time to peak (Tmax) turned out to be 0.5 h. Besides, in data set [1] (female, SD, read-out: AUC0-24h), the AUC(0-t) worked out at 72300 ng·h/mL. The compound also showed a negative-log IC50 (pIC50) against KAT6A of 9.42. For the same compound, on hERG channel, the negative logarithm of the IC50 (pIC50) was less than 4.52.
For orientation: half-life means the time in which the quantity being followed falls by half. Low values mean rapid decline, high ones slow decline. Consider `COc1nc(Cn2cccn2)cc2onc(NS(=O)(=O)c3cccc4ccoc34)c12` [Example 5, N-(6-((1H-Pyrazol-1-yl)methyl)-4-methoxyisoxazolo[4,5-c]pyridin-3-yl)benzofuran-7-sulfonamide], for which, in data set [1] (female, SD), the half-life is not above 10 h, the AUC(0-inf) worked out at 19700 ng·h/mL, the highest level (Cmax) was 5960 ng/mL and the time to peak (Tmax) amounted to 0.25 h. The AUC(0-t) in data set [1] (female, SD, read-out: AUC0-24h) is 18500 ng·h/mL. On KAT6A, the negative logarithm of the IC50 (pIC50) was 8.34. This compound had a pIC50 at hERG channel of less than 4.52.
Take `COc1cc2c(cc1S(=O)(=O)Nc1noc3cc(Cn4cccn4)nc(OC)c13)CCCC2` [Example 2, N-(6-((1H-Pyrazol-1-yl)methyl)-4-methoxyisoxazolo[4,5-c]pyridin-3-yl)-3-methoxy-5,6,7,8-tetrahydronaphthalene-2-sulfonamide]: in data set [1] (female, SD), the half-life was not above 10 h, the total exposure AUC(0-inf) was determined as 71500 ng·h/mL, the maximum concentration (Cmax) worked out at 4410 ng/mL and the Tmax worked out at 6 h. Moreover, the AUC(0-t) in data set [1] (female, SD, read-out: AUC0-24h) stood at 64800 ng·h/mL. For the same compound, the negative-log IC50 (pIC50) against KAT6A was 9.14. The compound also gave a pIC50 against hERG channel of less than 4.52.
